The record followed here is patent US20230192705A1, “SHP2 INHIBITORS, COMPOSITIONS AND USES THEREOF” (Betta Pharmaceuticals Co., Ltd, priority 2020, published 2023).

For the experiment, the target named is T1, SHP2 (Homo sapiens, UniProt Q06124).
T1 sequence (Q06124 1-593): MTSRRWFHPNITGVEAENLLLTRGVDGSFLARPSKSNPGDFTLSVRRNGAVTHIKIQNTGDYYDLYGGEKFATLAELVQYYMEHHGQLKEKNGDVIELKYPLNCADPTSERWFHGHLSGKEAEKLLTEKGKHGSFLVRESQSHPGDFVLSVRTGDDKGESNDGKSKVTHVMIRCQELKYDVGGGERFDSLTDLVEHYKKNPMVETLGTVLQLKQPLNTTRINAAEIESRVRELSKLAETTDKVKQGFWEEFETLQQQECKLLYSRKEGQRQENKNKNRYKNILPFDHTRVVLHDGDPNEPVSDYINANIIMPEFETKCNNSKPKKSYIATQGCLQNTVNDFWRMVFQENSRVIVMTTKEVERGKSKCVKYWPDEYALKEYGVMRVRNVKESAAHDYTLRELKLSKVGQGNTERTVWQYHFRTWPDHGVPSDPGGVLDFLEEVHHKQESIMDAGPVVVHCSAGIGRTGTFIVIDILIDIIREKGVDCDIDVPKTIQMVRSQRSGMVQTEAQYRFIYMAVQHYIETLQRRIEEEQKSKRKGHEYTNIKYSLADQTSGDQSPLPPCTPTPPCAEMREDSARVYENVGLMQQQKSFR
Description: SHP2 allosteric inhibitor enzyme activity assay (DiFMUP fluorescence). Type of experiment: biochemical. The conditions noted are these: class symbols. The source says: SHP2 is activated by the binding of a bis-tyrosyl-phosphorylated peptide to its Src homologous 2 (SH2) domain. This subsequent activation step leads to the release of the automatic inhibition interface of SHP2, which in turn activates the SHP2 protein tyrosine phosphatase (PTP) and can be used for substrate recognition and reaction catalysis. The catalytic activity of SHP2 was monitored using the alternative DiFMUP in a rapid fluorescence assay format.
Assay procedures are as follows:
(1) Compound Formulation:
The compound of the present invention (10 mM stock solution) was diluted to a suitable multiple with 100% DMSO and assay buffer, and the final test concentration of the compound of the present invention was 1 μM, 0.333 μM, 0.111 μM, 0.0370 μM, 0.0124 μM, 0.00412 μM, 0.00137 μM, 0.00046 μM, 0.00015 μM, 0.00 μM;
(2) Preparation of Enzyme Reaction Working Fluid:
SHP2 enzyme activity was performed using a final reaction volume of 50 μL and the following assay buffer conditions in 96-well black polystyrene plates (flat bottom, low flange, non-bonding surface) (Perki Elmer, Cat #6005270) at room temperature: 60 mM HEPES, 75 mM NaCl, 75 mM KCl, 0.05% BRIJ-35, 1 mM EDTA, 5 mM DTT.
(3) Enzyme Catalytic Reaction and Data Monitoring:
Compounds of the present invention were added to the corresponding 96-well plates, and no compound and enzyme were provided as blank test wells. SHP2 Activating Peptide (IRS1_pY1172 (dPEG8)pY1222) was placed on ice for melting, and 0.5 μM was added per well, then 0.2 ng SHP2 protein samples were added to corresponding well plates, and incubated at room temperature for 1 hour. Substrate DiFMUP (Invitrogen, Cat #D6567) was added to the reaction at room temperature for 1 hour. Fluorescence signals were monitored using an enzyme reader (Envision, Perki Elmer) using excitation wavelengths and emission wavelengths of 340 nm and 450 nm, respectively.
Inhibition %=[1−(Conversion_sample−Conversion_min)/(Conversion_max−Conversion_min)]*100% Calculation formula: […]
where: Conversion_sample is the mean reading of the sample wells; Conversion_min is the mean reading of blank control wells, representing the reading of the wells without enzyme; Conversion_max is the mean of positive control wells, representing the reading of the wells without inhibitor.
The dose-response curve is fitted with GraphPad Prism software and IC50 was calculated by the “log[inhibitor] vs. response-variable slope” program.
For orientation: IC50 means the concentration needed to halve the response being measured. A higher IC50 goes with weaker potency. On to `CC1(C)Cc2ncccc2C(c2n[nH]c3nc(N4CCC5(CC4)Cc4ccccc4[C@H]5N)[nH]c(=O)c23)=C1F` [Example 190, (S)-6-(1-amino-1,3-dihydrospiro[indene-2,4′-piperidin]-1′-yl)-3-(6-fluoro-7,7-dimethyl-7,8-dihydroquinolin-5-yl)-1,5-dihydro-4H-pyrazolo[3,4-d]pyrimidin-4-one], for which the IC50 was at most 20 nM. In turn, `N[C@@H]1c2ccccc2CC12CCN(c1nc3[nH]nc(C4(c5ccnnc5)CC4)c3c(=O)[nH]1)CC2` [Example 71, (S)-6-(1-amino-1,3-dihydrospiro[indene-2,4′-piperidin]-1′-yl)-3-(1-(pyridazin-4-yl)cyclopropyl)-1,5-dihydro-4H-pyrazolo[3,4-d]pyrimidin-4-one] gave an IC50 of at most 20 nM.

Turning to `N[C@@H]1c2ccccc2CC12CCN(c1nc3[nH]nc(C4(c5cccc(CO)c5)CC4)c3c(=O)[nH]1)CC2` [Example 226, (S)-6-(1-amino-1,3-dihydrospiro[indene-2,4′-piperidin]-1′-yl)-3-(1-(3-(hydroxymethyl)phenyl)cyclo-propyl)-1,5-dihydro-4H-pyrazolo[3,4-d]pyrimidin-4-one], the concentration for half-maximal inhibition (IC50) was at most 20 nM. As for `N[C@@H]1c2ccccc2CC12CCN(c1nc3[nH]nc(C4=CCOc5ccc(Cl)cc54)c3c(=O)[nH]1)CC2` [Example 135, (S)-6-(1-amino-1,3-dihydrospiro[indene-2,4′-piperidin]-1′-yl)-3-(6-chloro-2H-chromen-4-yl)-1,5-dihydro-4H-pyrazolo[3,4-d]pyrimidin-4-one], the IC50 was at most 20 nM. `C[C@@H]1OCC2(CCN(c3nc(N)c(C4(c5ccccc5)CC4)c(=O)n3C)CC2)[C@@H]1N` [Example 264, 6-amino-2-((3S,4S)-4-amino-3-methyl-2-oxa-8-azaspiro[4.5]decan-8-yl)-3-methyl-5-(1-phenylcyclopropyl)pyrimidin-4(3H)-one] returned an IC50 above 60 nM.

`Cc1cc(C(F)F)c2c(n1)CCC=C2c1n[nH]c2nc(N3CCC4(CC3)Cc3ccccc3[C@H]4N)[nH]c(=O)c12` [Example 142, (S)-6-(1-amino-1,3-dihydrospiro[indene-2,4′-piperidin]-1′-yl)-3-(4-(difluoromethyl)-2-methyl-7,8-dihydroquinolin-5-yl)-1,5-dihydro-4H-pyrazolo[3,4-d]pyrimidin-4-one]: the IC50 is 20 to 60 nM.

Turning to `N[C@@H]1c2ccccc2CC12CCN(c1nc3[nH]nc(C4=C(F)CCc5nc(Cl)ccc54)c3c(=O)[nH]1)CC2` [Example 188, (S)-6-(1-amino-1,3-dihydrospiro[indene-2,4′-piperidin]-1′-yl)-3-(2-chloro-6-fluoro-7,8-dihydroquinolin-5-yl)-1,5-dihydro-4H-pyrazolo[3,4-d]pyrimidin-4-one], the IC50 is at most 20 nM. Consider `Cn1ccc2c(C3(c4n[nH]c5nc(N6CCC7(CC6)Cc6ccccc6[C@H]7N)[nH]c(=O)c45)CC3)cccc21` [Example 81, (S)-6-(1-amino-1,3-dihydrospiro[indene-2,4′-piperidin]-1′-yl)-3-(1-(1-methyl-1H-indol-4-yl)cyclopropyl)-1,5-dihydro-4H-pyrazolo[3,4-d]pyrimidin-4-one], for which the IC50 was at most 20 nM.

`N[C@@H]1c2ccccc2CC12CCN(c1nc3[nH]nc([C@H]4C[C@H]4c4ccccc4)c3c(=O)[nH]1)CC2` [Example 105, 6-((S)-1-amino-1,3-dihydrospiro[indene-2,4′-piperidin]-1′-yl)-3-((1S,2R)-2-phenylcyclopropyl)-1,5-dihydro-4H-pyrazolo[3,4-d]pyrimidin-4-one] returned an IC50 of at most 20 nM. Compound `N[C@@H]1c2ccccc2CC12CCN(c1nc3[nH]nc(C4(c5ccccc5C(F)(F)F)CC4)c3c(=O)[nH]1)CC2` [Example 15, (S)-6-(1-amino-1,3-dihydrospiro[indene-2,4′-piperidin]-1′-yl)-3-(1-(2-(trifluoromethyl)phenyl)cyclo-propyl)-1,5-dihydro-4H-pyrazolo[3,4-d]pyrimidin-4-one] displayed an IC50 of at most 20 nM.

`Cn1ccc(C2(c3n[nH]c4nc(N5CCC6(CC5)Cc5ccccc5[C@H]6N)[nH]c(=O)c34)CC2)c(Cl)c1=O` [Example 73, (S)-6-(1-amino-1,3-dihydrospiro[indene-2,4′-piperidin]-1′-yl)-3-(1-(3-chloro-1-methyl-2-oxo-1,2-dihydropyridin-4-yl)cyclopropyl)-1,5-dihydro-4H-pyrazolo[3,4-d]pyrimidin-4-one]: the IC50 was at most 20 nM.

Compound `CC1(C)C=C(c2n[nH]c3nc(N4CCC5(CC4)Cc4ccccc4[C@H]5N)[nH]c(=O)c23)c2cn(C3CC3)nc2C1` [Example 155, (S)-6-(1-amino-1,3-dihydrospiro[indene-2,4′-piperidin]-1′-y1)-3-(2-cyclopropyl-6,6-dimethyl-6,7-dihydro-2H-indazol-4-yl)-1,5-dihydro-4H-pyrazolo[3,4-d]pyrimidin-4-one] yielded an IC50 of 20 to 60 nM. `C[C@@H]1OCC2(CCN(c3nc4[nH]nc(C5(c6cccc(F)c6)CC5)c4c(=O)[nH]3)CC2)[C@@H]1N` [Example 293, 6-((3S,4S)-4-amino-3-methyl-2-oxa-8-azaspiro[4.5]decan-8-yl)-3-(1-(3-fluorophenyl)cyclopropyl)-1,5-dihydro-4H-pyrazolo[3,4-d]pyrimidin-4-one] displayed an IC50 of 20 to 60 nM. For `N[C@@H]1c2ccccc2CC12CCN(c1nc3[nH]nc(C4(c5ccncc5F)CC4)c3c(=O)[nH]1)CC2` [Example 58, (S)-6-(1-amino-1,3-dihydrospiro[indene-2,4′-piperidin]-1′-yl)-3-(1-(3-fluoropyridin-4-yl)cyclopropyl)-1,5-dihydro-4H-pyrazolo[3,4-d]pyrimidin-4-one], the IC50 was at most 20 nM.

The compound `N[C@@H]1c2ccccc2CC12CCN(c1nc3[nH]nc(C4CCCCc5ccccc54)c3c(=O)[nH]1)CC2` (stereo partly drawn) [Example 110, 6-((S)-1-amino-1,3-dihydrospiro[indene-2,4′-piperidin]-1′-yl)-3-(6,7,8,9-tetrahydro-5H-benzo[7]annulen-5-yl)-1,5-dihydro-4H-pyrazolo[3,4-d]pyrimidin-4-one] returned an IC50 of at most 20 nM. Compound `C[C@@H]1OCC2(CCN(c3nc4[nH]nc(C5(c6nccs6)CC5)c4c(=O)[nH]3)CC2)[C@@H]1N` [Example 277, 6-((3S,4S)-4-amino-3-methyl-2-oxa-8-azaspiro[4.5]decan-8-yl)-3-(1-(thiazol-2-yl)cyclopropyl)-1,5-dihydro-4H-pyrazolo[3,4-d]pyrimidin-4-one] came in with an IC50 of 20 to 60 nM. As to `Cn1ncc2c1CCC=C2c1n[nH]c2nc(N3CCC4(CC3)Cc3ccccc3[C@H]4N)[nH]c(=O)c12` [Example 131, (S)-6-(1-amino-1,3-dihydrospiro[indene-2,4′-piperidin]-1′-yl)-3-(1-methyl-6,7-dihydro-1H-indazol-4-yl)-1,5-dihydro-4H-pyrazolo[3,4-d]pyrimidin-4-one], the IC50 was at most 20 nM. Then `N[C@@H]1c2ccccc2CC12CCN(c1nc3[nH]nc(C4(c5ccccn5)CCC4)c3c(=O)[nH]1)CC2` [Example 93, (S)-6-(1-amino-1,3-dihydrospiro[indene-2,4′-piperidin]-1′-yl)-3-(1-(pyridin-2-yl)cyclobutyl)-1,5-dihydro-4H-pyrazolo[3,4-d]pyrimidin-4-one], with at most 20 nM; and `N[C@@H]1c2nc(Cl)sc2CC12CCN(c1nc3[nH]nc(C4(c5ccccc5)CC4)c3c(=O)[nH]1)CC2` [Example 193, (S)-6-(4-amino-2-chloro-4,6-dihydrospiro[cyclopenta[d]thiazole-5,4′-piperidin]-1′-yl)-3-(1-phenylcyclopropyl)-1,5-dihydro-4H-pyrazolo[3,4-d]pyrimidin-4-one], with at most 20 nM.
